According to ChEMBL document CHEMBL1143030, “Synthesis and evaluation of 2-(2,6-dihalophenyl)-3-pyrimidinyl-1,3-thiazolidin-4-one analogues as anti-HIV-1 agents” (Bioorg Med Chem, 2007):
Calls of active or inactive are those of the source. The rule behind the calls is not given here.

How the values were obtained:
[1] = tested on: Human immunodeficiency virus 1; test: Antiviral activity against HIV1 3B-induced cytopathic effect in MT4 cells assessed as inhibition of virus-induced syncytium formation; format: functional, organism-based; conditions: Human immunodeficiency virus 1, 3B
[2] = Cytotoxicity against mock-infected MT4 cells assessed as reduction of cell viability; format: cell-based; conditions: human
[3] = tested on: Human immunodeficiency virus 2; test: Inhibition of HIV2 ROD replication in MT4 cells; format: functional, organism-based
[4] = tested on: Human immunodeficiency virus 1; test: Antiviral activity against HIV1 3B-induced cytopathic effect in CEM cells assessed as inhibition of virus-induced syncytium formation; format: functional, organism-based; conditions: Human immunodeficiency virus 1, 3B, CCRF-CEM
[5] = Selectivity index, ratio of CC50 for mock-infected MT4 cells to EC50 for HIV1 3B; format: functional
[6] = molecular target: Human immunodeficiency virus type 1 reverse transcriptase (Human immunodeficiency virus 1) (UniProt Q72547); test: Inhibition of HIV1 reverse transcriptase at 10 ug/ml
[7] = molecular target: Human immunodeficiency virus type 1 reverse transcriptase (Human immunodeficiency virus 1) (UniProt Q72547); test: Inhibition of HIV1 reverse transcriptase at 100 ug/ml
[8] = Selectivity index, ratio of CC50 for mock-infected CEM cells to EC50 for HIV1 3B; format: functional, CCRF-CEM
[9] = Cytotoxicity against mock-infected CEM cells assessed as reduction of cell viability; format: cell-based; conditions: human, mock-infected CEM (CCRF-CEM) cells

Row | SMILES | EC50 ([1]; read-out: EC50) [µM] | EC50 ([1]; read-out: Log EC50 (converted)) [µM] | CC50 [2] [µM] | Activity [3] | EC50 [4] [µM] | Ratio CC50/EC50 [5] | inhibition [6] [%] | inhibition [7] [%] | Ratio CC50/EC50 [8] | CC50 [9] [µM]
1 | Cc1cc(N2C(=O)CSC2c2c(Cl)cccc2Cl)nc(C)n1 (configuration not stated) | 4.3 | 3.98 | 41.3 | inactive | 3.8 | 10 | 6.6 | 51.9 | 11 | 42
2 | Clc1cccc(Cl)c1C1SCc2nc3ccccc3n21 (configuration not stated) | 0.6 |  | 9.4 |  |  | 16 |  |  |  | 
3 | O=C1CSC(c2c(F)cccc2Cl)N1c1nc(-c2ccccc2)cc(C(F)(F)F)n1 (configuration not stated) | > 10.8 |  | 93.9 | inactive |  | 9 | 43.9 | 20.6 |  | 
4 | Cc1cc(-c2ccccc2)nc(N2C(=O)CSC2c2c(F)cccc2F)n1 (configuration not stated) | 6.4 | 6.31 | 36.5 | inactive | 5.6 | 6 | 47.4 | 54.2 | 6 | 36.5
5 | Cc1cc(-c2ccccc2)nc(N2C(=O)CSC2c2c(Cl)cccc2Cl)n1 (configuration not stated) | 6.1 | 6.31 | 35.3 | inactive | 5.8 | 6 | 18 | 51.5 | 6 | 35.3
6 | Cc1cc(C(F)(F)F)nc(N2C(=O)CSC2c2c(F)cccc2Cl)n1 (configuration not stated) | 1.3 | 1.26 | 16.9 | inactive | 1.1 | 13 | 46.3 | 93.7 | 18 | 19.3
7 | O=C1CSC(c2c(Cl)cccc2Cl)N1c1nc(-c2ccccc2)cc(C(F)(F)F)n1 (configuration not stated) | > 80.2 |  | 140 | inactive |  | <1 | 25.4 | 39.4 |  | 
8 | Cc1nc(N2C(=O)CSC2c2c(F)cccc2F)nc(C)c1C (configuration not stated) | 0.4 | 0.398 | 341 | inactive | 0.3 | 880 | 96.3 | 100 | >1222 | > 373
9 | O=C1CSC(c2c(F)cccc2Cl)N1c1nc(-c2ccccc2)cc(-c2ccccc2)n1 (configuration not stated) | > 242 |  | > 201 | inactive |  | <1 | 55.6 | 66.7 |  | 
10 | O=C1CSC(c2c(Cl)cccc2Cl)N1c1nc(-c2ccccc2)cc(-c2ccccc2)n1 (configuration not stated) | > 195 |  | 193 | inactive |  | <1 | 31.6 | 51.4 |  | 
11 | O=C1CSC(c2c(F)cccc2F)N1c1nc(-c2ccccc2)cc(C(F)(F)F)n1 (configuration not stated) | > 123 |  | 74.3 | inactive |  | <1 | 15.6 | 6.6 |  | 
12 | Cc1cc(C(F)(F)F)nc(N2C(=O)CSC2c2c(F)cccc2F)n1 (configuration not stated) | 5 | 5.01 | 125 | inactive | 4.4 | 25 | 32.3 | 38.9 | 32 | 140
13 | Cc1nc(N2C(=O)CSC2c2c(Cl)cccc2Cl)nc(C)c1C (configuration not stated) |  |  |  |  |  |  | 94.8 | 100 |  | 
14 | Cc1cc(N2C(=O)CSC2c2c(F)cccc2F)nc(C)n1 (configuration not stated) | 25.5 | 25.1 | 272 | inactive | 20.3 | 11 | 27.2 | 58.1 | 13 | 272
15 | Cc1cc(-c2ccccc2)nc(N2C(=O)CSC2c2c(F)cccc2Cl)n1 (configuration not stated) | 3.9 | 3.98 | 146 | inactive | 3.9 | 38 | 32.7 | 79.9 | 44 | 172
16 | Cc1cc(C(F)(F)F)nc(N2C(=O)CSC2c2c(Cl)cccc2Cl)n1 (configuration not stated) | 1 | 1 | 46.4 | inactive | 0.8 | 46 | 32.9 | 43.7 | 62 | 46.7
17 | O=C1CSC(c2c(F)cccc2F)N1c1nc(-c2ccccc2)cc(-c2ccccc2)n1 (configuration not stated) | > 167 |  | 177 | inactive |  | <1 | 30.1 | 44 |  | 
18 | Cc1nc(N2C(=O)CSC2c2c(F)cccc2Cl)nc(C)c1C (configuration not stated) |  |  |  |  |  |  | 99.3 | 100 |  | 
19 | Fc1cccc(F)c1C1SCc2nc3ccccc3n21 (configuration not stated) [THIAZOLOBENZIMIDAZOLE] | 0.35 |  |  |  | 1.1 | 54.5 |  |  | 45 | 
20 | Cc1cc(N2C(=O)CSC2c2c(F)cccc2Cl)nc(C)n1 (configuration not stated) | 4.3 | 3.98 | 47.6 | inactive | 4.1 | 11 | 9.3 | 48.6 | 12 | 47.6
